The IC50 is the concentration that inhibits the measured activity by half. High values mean weaker potency, low ones greater potency.

Molecules are shown by their SMILES.

This assay deals with primary rat microglia. Kind of assay: Inhibition of microglia activation (Aβ-peptide-activated primary rat microglia, MTS reduction). The format is cell-based. The following applies: 168 h, test of Example 307, metabolic activity via MTS reduction on cultivation day 7, relative to DMSO control.

Compound `Cc1ccc(-n2c(-c3ccccc3)nc3ccc(OCCCCCC(=O)OC(C)C)cc32)cc1` [Example 49, 6-[[1-(4-Methylphenyl)-2-phenyl-1H-benzimidazol-6-yl]oxy]hexanoic acid isopropyl ester] had an IC50 of 750 nM. This counts as sub-micromolar.

(Values after US7115645B2, “1,2 diarylbenzimidazoles and their pharmaceutical use” (Schering Aktiengesellschaft, priority 2000, dated 2006).)
